Laboratory results from patent US8546377B2 (AbbVie Inc., priority 2009, dated 2013).

Molecular target: T1, h-5-HT6 receptor (Homo sapiens, UniProt P50406)
T1 construct: expressed in transfected cells; host or cells: HEK293 cells (membrane preparation)
Assay: Human 5-HT6 receptor radioligand binding assay ([3H]-LSD, HEK293 membranes)
Conditions: HEK293 membranes, 1 nM [3H]-lysergic acid diethylamide, 3.5 hours at room temperature; read-out: Ki (μM), 5-HT6 Agonist Site Radioligand Binding
Procedure: (iv) Human 5-HT6 Receptor Radioligand Binding Assay
Preparation of Membranes by Ultrasonic Treatment and Differential Centrifugation
Cells from stable clonal cell lines expressing the corresponding receptor (5-HT6) were washed with PBS (without Ca^++, Mg^++) and harvested in PBS with 0.02% EDTA. The cells were collected by centrifugation at 500 g for 10 minutes at 4° C., washed with PBS and centrifuged (500 g, 10 minutes at 4° C.). The pellets were stored at −80° C. until use. For membrane preparation, the thawed cell pellet was resuspended in ice-cold sucrose buffer (0.25 M sucrose, 10 mM HEPES (pH 7.4), 1 mM phenylmethylsulfonyl fluoride (PMSF) in DMSO, 5 μg/ml Pepstatin-A, 3 mM EDTA, 0.025% Bacitracin) and homogenized with a Branson Sonifier W-250 (Settings: Timer 4; Output Control 3; Duty Cycle constant; 2 to 3 cycles). Cell disruption was checked with the aid of a microscope. Remaining unbroken cells were pelleted at 1,000 g for 10 minutes at 4° C. The sucrose buffer supernatant was then centrifuged at 60,000 g for 1 hour at 4° C. (Beckman Ultrazentrifuge XL 80). The pellet was resuspended in 30 mL of ice-cold Tris buffer (20 mM TRIS (pH 7.4), 5 μg/mL Pepstatin A, 0.1 mM PMSF, 3 mM EDTA) by pipetting through a 10 mL serological pipet and centrifuged for 1 hour at 4° C. at 60,000 g. A final resuspension was performed in a small volume of ice-cold Tris buffer (see above) by pressing through a serological pipet followed by ultrasonic treatment with a Branson Sonifier W-250 (Settings: Timer 1; Output Control 3; Duty Cycle constant; 1 cycle). Protein concentration was determined (BCA-Kit; Pierce) and aliquots stored at −80° C. or in liquid nitrogen for long-term storage.
Receptor Binding Experiments
All receptor binding experiments were carried out in the corresponding assay buffer in a total volume of 200 μL in the presence of various concentrations of test compound (10^−5 M to 10^−9 M, tenfold serial dilution, duplicate determinations). The assays were terminated by filtration on polyethylenimine (PEI 0.1% or 0.3%) presoaked Packard Unifilter Plates (GF/C or GF/B) with a Tomtec MachIII U 96 well-plate harvester. After the plates had been dried for 2 hours at 55° C. in a drying chamber scintillation cocktail (BetaPlate Scint; PerkinElmer) was added. Radioactivity was measured in a Microbeta Trilux two hours after the addition of the scintillation mixture.
5-HT6 Receptor Binding Assay
HEK293 cells stably expressing the h-5-HT6 receptor (NCBI Reference Sequence XM 001435) were cultured in RPMI1640 medium supplemented with 25 mM HEPES, 10% fetal calf serum and 1-2 mM glutamine. The membrane preparation was performed as described above. […] On the day of the assay, the membranes were thawed, diluted in assay buffer (50 mM Tris-HCl, 5 mM CaCl2, 0.1% ascorbic acid, 10 μM pargyline, pH 7.4) to a concentration of 8 μg protein/assay and homogenized by gentle vortexing. […] Non-specific binding was defined with 1 μM methiothepin. The binding reaction was carried out for 3.5 hours at room temperature. During the incubation, the plates were shaken on a plate shaker at 100 rpm and terminated by filtration on Packard Unifilter GF/C (0.1% PEI) plates, followed by 2 wash cycles with ice-cold 50 mM Tris-HCl, 5 mM CaCl2.
Data derived from liquid scintillation counting were analyzed by iterative non-linear regression analysis with the use of the Statistical Analysis System (SAS): a program similar to “LIGAND” as described by Munson and Rodbard (Anal. Biochem. 1980, 107, 220-239). Fitting was performed according to formulae described by Feldman (Anal. Biochem. 1972, 48, 317-338). IC50, nH and Ki values were expressed as geometrical mean.
The results of the receptor binding studies are expressed as receptor binding constants Ki(5-HT6) as described herein before, and given in Table 5.

T1 sequence (P50406 whole entry): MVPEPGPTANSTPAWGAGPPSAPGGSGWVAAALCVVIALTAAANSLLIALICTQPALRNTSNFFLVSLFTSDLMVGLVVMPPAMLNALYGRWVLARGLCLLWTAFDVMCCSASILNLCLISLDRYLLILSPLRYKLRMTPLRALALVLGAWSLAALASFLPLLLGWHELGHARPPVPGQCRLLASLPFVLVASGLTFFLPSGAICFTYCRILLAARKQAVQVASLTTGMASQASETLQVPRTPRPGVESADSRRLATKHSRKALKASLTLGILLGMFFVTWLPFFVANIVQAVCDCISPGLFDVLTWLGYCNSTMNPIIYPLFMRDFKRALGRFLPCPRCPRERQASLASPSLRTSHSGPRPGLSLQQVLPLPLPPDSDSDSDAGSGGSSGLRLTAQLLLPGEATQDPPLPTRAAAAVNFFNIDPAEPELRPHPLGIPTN

## O=C1NCC2CNCCN2c2ccc(NS(=O)(=O)c3ccccc3)cc21 (stereo not shown) [Example 48, N-(7-oxo-1,2,3,4,4a,5,6,7-octahydropyrazino[1,2-a][1,4]benzodiazepin-9-yl)benzenesulfonamide]
  Ki: 0.045 µM
